Key:
[1] = system: late watergrass; assay: Test Example 2: herbicidal activity, application during weed generation under submerged conditions (Table 17, symbol A); format: in vivo, late watergrass (Echinochloa oryzicola); conditions: AAH 320 g/ha; application during weed generation, submerged conditions
In short: (§1)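 In this pot test, flooded alluvial soil (water depth 4 cm) holds all three species sown as a mixture. Once seedlings have one to two leaves, the compound's emulsion, thinned with water to the intended dose, is poured on the water; grading follows after three weeks on the earlier criteria.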

[2] = system: Japanese bulrush; assay: Test Example 2: herbicidal activity, application during weed generation under submerged conditions (Table 17, symbol B); format: in vivo, Japanese bulrush (Schoenoplectus juncoides); conditions: AAH 320 g/ha; application during weed generation, submerged conditions
In short: as §1

[3] = system: oval-leafed pondweed; assay: Test Example 2: herbicidal activity, application during weed generation under submerged conditions (Table 17, symbol C); format: in vivo, oval-leafed pondweed (Monochoria vaginalis); conditions: AAH 320 g/ha; application during weed generation, submerged conditions
In short: as §1

[4] = system: barnyard grass; assay: Test Example 3: herbicidal effect by foliage application, Wagner pot (Table 18, symbol H); format: in vivo, barnyard grass (Echinochloa crus-galli); conditions: 320 g/ha
In short: (§2)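 Plants were sown in alluvial soil held under 0.1–0.5 cm standing water and grown 14 days in a greenhouse at 25–30 °C. An emulsifiable formulation, water-diluted to the set dose, was then sprayed onto the foliage, and effects were scored three weeks later using previously defined criteria.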

[5] = system: Chinese sprangletop; assay: Test Example 3: herbicidal effect by foliage application, Wagner pot (Table 18, symbol D); format: in vivo, chinese sprangletop (Leptochloa chinensis); conditions: 320 g/ha
In short: as §2

[6] = system: rice flat sedge; assay: Test Example 3: herbicidal effect by foliage application, Wagner pot (Table 18, symbol E); format: in vivo, rice flat sedge (Cyperus iria); conditions: 320 g/ha
In short: as §2

[7] = system: southern crabgrass; assay: Test Example 4: herbicidal effect by soil treatment (Table 19, symbol F); format: in vivo, southern crabgrass (Digitaria ciliaris); conditions: amount of applied herbicide 320 g/ha
In short: (§3)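 Pre-emergence style soil spray: seeds under ~1.5 cm sterilized diluvial soil received a uniform coat of emulsion diluted to the predetermined herbicide amount. Greenhouse 25–30° C; readout at week three on previously defined criteria.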

[8] = system: green foxtail; assay: Test Example 4: herbicidal effect by soil treatment (Table 19, symbol G); format: in vivo, green foxtail (Setaria viridis); conditions: amount of applied herbicide 320 g/ha
In short: as §3

[9] = system: barnyard grass; assay: Test Example 4: herbicidal effect by soil treatment (Table 19, symbol H); format: in vivo, barnyard grass (Echinochloa crus-galli); conditions: amount of applied herbicide 320 g/ha
In short: as §3

[10] = system: wild oat; assay: Test Example 4: herbicidal effect by soil treatment (Table 19, symbol I); format: in vivo, wild oat (Avena fatua); conditions: amount of applied herbicide 320 g/ha
In short: as §3

[11] = system: blackgrass; assay: Test Example 4: herbicidal effect by soil treatment (Table 19, symbol J); format: in vivo, blackgrass (Alopecurus myosuroides); conditions: amount of applied herbicide 320 g/ha
In short: as §3

[12] = system: Italian ryegrass; assay: Test Example 4: herbicidal effect by soil treatment (Table 19, symbol K); format: in vivo, Italian ryegrass (Lolium multiflorum); conditions: amount of applied herbicide 320 g/ha
In short: as §3

[13] = system: windgrass; assay: Test Example 4: herbicidal effect by soil treatment (Table 19, symbol L); format: in vivo, windgrass (Apera spica-venti); conditions: amount of applied herbicide 320 g/ha
In short: as §3

[14] = system: velvetleaf; assay: Test Example 4: herbicidal effect by soil treatment (Table 19, symbol M); format: in vivo, velvetleaf (Abutilon theophrasti); conditions: amount of applied herbicide 320 g/ha
In short: as §3

[15] = system: redroot pigweed; assay: Test Example 4: herbicidal effect by soil treatment (Table 19, symbol N); format: in vivo, redroot pigweed (Amaranthus retroflexus); conditions: amount of applied herbicide 320 g/ha
In short: as §3

[16] = system: lambsquarters; assay: Test Example 4: herbicidal effect by soil treatment (Table 19, symbol O); format: in vivo, lambsquarters (Chenopodium album); conditions: amount of applied herbicide 320 g/ha
In short: as §3

[17] = system: chickweed; assay: Test Example 4: herbicidal effect by soil treatment (Table 19, symbol P); format: in vivo, common chickweed (Stellaria media); conditions: amount of applied herbicide 320 g/ha
In short: as §3

[18] = system: false cleavers; assay: Test Example 4: herbicidal effect by soil treatment (Table 19, symbol Q); format: in vivo, false cleavers (Galium spurium); conditions: amount of applied herbicide 320 g/ha
In short: as §3

[19] = system: persian speedwell; assay: Test Example 4: herbicidal effect by soil treatment (Table 19, symbol R); format: in vivo, Persian speedwell (Veronica persica); conditions: amount of applied herbicide 320 g/ha
In short: as §3

[20] = system: southern crabgrass; assay: Test Example 5: herbicidal effect by foliage application, plastic box (Table 20, symbol F); format: in vivo, southern crabgrass (Digitaria ciliaris); conditions: foliage application, 320 g/ha, evaluated three weeks after application
In short: (§4)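 Plants were sown into sterilized diluvial soil under about 1.5 cm cover and kept in a greenhouse at 25° C. to 30° C. Fourteen days on, foliage received an even spray of the diluted emulsion. Herbicidal or crop effect was judged three weeks afterwards.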

[21] = system: green foxtail; assay: Test Example 5: herbicidal effect by foliage application, plastic box (Table 20, symbol G); format: in vivo, green foxtail (Setaria viridis); conditions: foliage application, 320 g/ha, evaluated three weeks after application
In short: as §4

[22] = system: barnyard grass; assay: Test Example 5: herbicidal effect by foliage application, plastic box (Table 20, symbol H); format: in vivo, barnyard grass (Echinochloa crus-galli); conditions: foliage application, 320 g/ha, evaluated three weeks after application
In short: as §4

[23] = system: wild oat; assay: Test Example 5: herbicidal effect by foliage application, plastic box (Table 20, symbol I); format: in vivo, wild oat (Avena fatua); conditions: foliage application, 320 g/ha, evaluated three weeks after application
In short: as §4

[24] = system: blackgrass; assay: Test Example 5: herbicidal effect by foliage application, plastic box (Table 20, symbol J); format: in vivo, blackgrass (Alopecurus myosuroides); conditions: foliage application, 320 g/ha, evaluated three weeks after application
In short: as §4

[25] = system: Italian ryegrass; assay: Test Example 5: herbicidal effect by foliage application, plastic box (Table 20, symbol K); format: in vivo, Italian ryegrass (Lolium multiflorum); conditions: foliage application, 320 g/ha, evaluated three weeks after application
In short: as §4

[26] = system: windgrass; assay: Test Example 5: herbicidal effect by foliage application, plastic box (Table 20, symbol L); format: in vivo, windgrass (Apera spica-venti); conditions: foliage application, 320 g/ha, evaluated three weeks after application
In short: as §4

[27] = system: velvetleaf; assay: Test Example 5: herbicidal effect by foliage application, plastic box (Table 20, symbol M); format: in vivo, velvetleaf (Abutilon theophrasti); conditions: foliage application, 320 g/ha, evaluated three weeks after application
In short: as §4

[28] = system: redroot pigweed; assay: Test Example 5: herbicidal effect by foliage application, plastic box (Table 20, symbol N); format: in vivo, redroot pigweed (Amaranthus retroflexus); conditions: foliage application, 320 g/ha, evaluated three weeks after application
In short: as §4

[29] = system: lambsquarters; assay: Test Example 5: herbicidal effect by foliage application, plastic box (Table 20, symbol O); format: in vivo, lambsquarters (Chenopodium album); conditions: foliage application, 320 g/ha, evaluated three weeks after application
In short: as §4

[30] = system: chickweed; assay: Test Example 5: herbicidal effect by foliage application, plastic box (Table 20, symbol P); format: in vivo, common chickweed (Stellaria media); conditions: foliage application, 320 g/ha, evaluated three weeks after application
In short: as §4

[31] = system: false cleavers; assay: Test Example 5: herbicidal effect by foliage application, plastic box (Table 20, symbol Q); format: in vivo, false cleavers (Galium spurium); conditions: foliage application, 320 g/ha, evaluated three weeks after application
In short: as §4

[32] = system: persian speedwell; assay: Test Example 5: herbicidal effect by foliage application, plastic box (Table 20, symbol R); format: in vivo, Persian speedwell (Veronica persica); conditions: foliage application, 320 g/ha, evaluated three weeks after application
In short: as §4

## CCCC(=O)Oc1c(C)nn(C)c(=O)c1-c1c(-c2ccc(OC(C)C)cc2)sc2ccc(Cl)cc12 [2-108]
[1]
  herbicidal effect rating, A: late watergrass: 3 (Herbicidal rate of 40% or more and less than 70%)
[2]
  herbicidal effect rating, B: Japanese bulrush: 0 (Herbicidal rate of 5% or less (almost no effect))
[3]
  herbicidal effect rating, C: oval-leafed pondweed: 0 (Herbicidal rate of 5% or less (almost no effect))
[4]
  herbicidal effect on H (barnyard grass), rating 0-5: 4 (Herbicidal rate of 70% or more and less than 90%)
[5]
  herbicidal effect on D (Chinese sprangletop), rating 0-5: 0 (Herbicidal rate of 5% or less (almost no effect))
[6]
  herbicidal effect on E (rice flat sedge), rating 0-5: 2 (Herbicidal rate of 20% or more and less than 40%)
[7]
  F: southern crabgrass, herbicidal effect rating: 0 (Herbicidal rate of 5% or less (almost no effect))
[8]
  G: green foxtail, herbicidal effect rating: 0 (Herbicidal rate of 5% or less (almost no effect))
[9]
  H: barnyard grass, herbicidal effect rating: 0 (Herbicidal rate of 5% or less (almost no effect))
[10]
  I: wild oat, herbicidal effect rating: 0 (Herbicidal rate of 5% or less (almost no effect))
[11]
  J: blackgrass, herbicidal effect rating: 0 (Herbicidal rate of 5% or less (almost no effect))
[12]
  K: Italian ryegrass, herbicidal effect rating: 0 (Herbicidal rate of 5% or less (almost no effect))
[13]
  L: windgrass, herbicidal effect rating: 0 (Herbicidal rate of 5% or less (almost no effect))
[14]
  M: velvetleaf, herbicidal effect rating: 0 (Herbicidal rate of 5% or less (almost no effect))
[15]
  N: redroot pigweed, herbicidal effect rating: 0 (Herbicidal rate of 5% or less (almost no effect))
[16]
  O: lambsquarters, herbicidal effect rating: 0 (Herbicidal rate of 5% or less (almost no effect))
[17]
  P: chickweed, herbicidal effect rating: 0 (Herbicidal rate of 5% or less (almost no effect))
[18]
  Q: false cleavers, herbicidal effect rating: 0 (Herbicidal rate of 5% or less (almost no effect))
[19]
  R: persian speedwell, herbicidal effect rating: 4 (Herbicidal rate of 70% or more and less than 90%)
[20]
  herbicidal effect on F: southern crabgrass: 0 (Herbicidal rate of 5% or less (almost no effect))
[21]
  herbicidal effect on G: green foxtail: 0 (Herbicidal rate of 5% or less (almost no effect))
[22]
  herbicidal effect on H: barnyard grass: 0 (Herbicidal rate of 5% or less (almost no effect))
[23]
  herbicidal effect on I: wild oat: 0 (Herbicidal rate of 5% or less (almost no effect))
[24]
  herbicidal effect on J: blackgrass: 0 (Herbicidal rate of 5% or less (almost no effect))
[25]
  herbicidal effect on K: Italian ryegrass: 0 (Herbicidal rate of 5% or less (almost no effect))
[26]
  herbicidal effect on L: windgrass: 0 (Herbicidal rate of 5% or less (almost no effect))
[27]
  herbicidal effect on M: velvetleaf: 2 (Herbicidal rate of 20% or more and less than 40%)
[28]
  herbicidal effect on N: redroot pigweed: 3 (Herbicidal rate of 40% or more and less than 70%)
[29]
  herbicidal effect on O: lambsquarters: 1 (Herbicidal rate of 5% or more and less than 20%)
[30]
  herbicidal effect on P: chickweed: 4 (Herbicidal rate of 70% or more and less than 90%)
[31]
  herbicidal effect on Q: false cleavers: 0 (Herbicidal rate of 5% or less (almost no effect))
[32]
  herbicidal effect on R: persian speedwell: 5 (Herbicidal rate of 90% or more (almost completely withered))
